Holding throughout (format): physicochemical
Series [1] can be described thus: Intrinsic dissolution rate, USP chapter 1087 (Example 5). As to the method:
A test of measuring intrinsic dissolution rate (according to USP chapter 1087 “APPARENT […] DISSOLUTION-DISSOLUTION TESTING PROCEDURES FOR ROTATING DISK AND STATIONARY DISK”) was performed on a composition containing the amorphous and crystalline forms (form I crystals) of 9-ethyl-6,6-dimethyl-8-(4-morpholin-4-yl-piperidin-1-yl)-11-oxo-6,11-dihydro-5H-benzo[b]carbazole-3-carbonitrilemonohydrochloride at certain ratios. It was concluded that the dissolution rate was increased when the content of the amorphous was about 15% or higher.

The nature of series [2]: Solubility by shake flask method, 37° C. (Example 6). As to the method: Solubility of the amorphous form and form I crystals of 9-ethyl-6,6-dimethyl-8-(4-morpholin-4-yl-piperidin-1-yl)-11-oxo-6,11-dihydro-5H-benzo[b]carbazole-3-carbonitrilemonohydrochloride was examined using a shake flask method (37° C.).
Series [3] can be described thus: Stability test of the amorphous form, X-ray powder diffraction after storage (Example 4). More on the design: key to State of the amorphous form after storage (X-ray powder diffraction peak): ◯: no peak of diffraction angle; X: clear peak of diffraction angle. The method, then: The amorphous form of 9-ethyl-6,6-dimethyl-8-(4-morpholin-4-yl-piperidin-1-yl)-11-oxo-6,11-dihydro-5H-benzo[b]carbazole-3-carbonitrilemonohydrochloride was stored under a certain condition and transition of the state of the amorphous form of the test compound was analyzed using. X-ray power diffraction as in the Test example 1.

The nature of series [4]: Residual rate of principal drug by HPLC after storage (Test Example 5). The method, then:
The amorphous substances and the solid dispersions of 9-ethyl-6,6-dimethyl-8-(4-morpholin-4-yl-piperidin-1-yl)-11-oxo-6,11-dihydro-5H-benzo[b]carbazole-3-earbonitrile obtained in Examples 8 to 15 were tested under two conditions: i) they were stored in a thermostatic bath set at 40° C. for 3 months, and ii) they were stored in a thermostatic bath set at 40° C. and 75% RH for 3 months in an open state. Residual rates of the principal drugs were measured under following conditions of high performance liquid chromatography. It was concluded that the amorphous substances and the solid dispersions were chemically stable.
Detector: UV absorptiometer (measurement wavelength: 230 nm)
Column: stainless column of 4.6 mm in inner diameter and 15 cm in length, filled with 3.5 um of octadecylsilyl silica gel for liquid chromatography
Column temperature: fixed temperature about 35° C.
Mobile phase A: mixed solution of acetonitrile/trifluoroacetic acid (2000:1)
Mobile phase B: mixed solution of water/trifluoroacetic acid (2000:1)
Mobile phase supply: controlled concentration gradient with varying mixing ratio of mobile phases A and B as follows.

Here are results for 3 compounds from US10344014B2, “Amorphous form of tetracyclic compound” (Chugai Seiyaku Kabushiki Kaisha, priority 2014, dated 2019).

A word on the Solubility: it is the concentration that dissolves in the medium under given conditions.

For `CCc1cc2c(cc1N1CCC(N3CCOCC3)CC1)C(C)(C)c1[nH]c3cc(C#N)ccc3c1C2=O.Cl` [9-ethyl-6,6-dimethyl-8-(4-morpholin-4-yl-piperidin-1-yl)-11-oxo-6,11-dihydro-5H-benzo[b]carbazole-3-carbonitrilemonohydrochloride], the Intrinsic dissolution rate came to 0.0065 mg/cm^2/min in series [1] (Amount of amorphous 5.6%), 0.0065 mg/cm^2/min in series [1] (Amount of amorphous 9.8%), 0.0112 mg/cm^2/min in series [1] (Amount of amorphous 16.8%) and 0.0078 mg/cm^2/min in series [1] (Amount of amorphous (%): 0 < Lower than detection limit).
As for `CCc1cc2c(cc1N1CCC(N3CCOCC3)CC1)C(C)(C)c1[nH]c3cc(C#N)ccc3c1C2=O.Cl` [Amorphous, 9-ethyl-6,6-dimethyl-8-(4-morpholin-4-yl-piperidin-1-yl)-11-oxo-6,11-dihydro-5H-benzo[b]carbazole-3-carbonitrilemonohydrochloride], the Solubility is 0.5 µg/mL in series [2] (Acetate buffer pH 4.5, equilibration 1 hour); 0.4 µg/mL in series [2] (Acetate buffer pH 4.5, equilibration 24 hours, limit of quantitation 0.0004 mg/mL); 4.5 µg/mL in series [2] (First solution for dissolution test (Japanese Pharmacopoeia, 16th edition), equilibration 1 hour); 2.5 µg/mL in series [2] (First solution for dissolution test (Japanese Pharmacopoeia, 16th edition), equilibration 24 hours); “<Lower than limit of” in series [2] (Phosphate buffer pH 8.0, equilibration 1 hour, limit of quantitation 0.0004 mg/mL); “<Lower than limit of” in series [2] (Phosphate buffer pH 8.0, equilibration 24 hours, limit of quantitation 0.0004 mg/mL). For the same compound, the Solubility entry in series [2] (Simulated intestinal fluid (SIFsp), equilibration 1 hour, limit of quantitation 0.0004 mg/mL) is “<Lower than limit of”; in series [2] (Simulated intestinal fluid (SIFsp), equilibration 24 hours, limit of quantitation 0.0004 mg/mL), “<Lower than limit of”; in series [2] (Solution for dissolution test (4% Triton-X100 added to the first solution for dissolution test), equilibration 1 hour), 1150.6 µg/mL; in series [2] (Solution for dissolution test (4% Triton-X100 added to the first solution for dissolution test), equilibration 24 hours), 1155.2 µg/mL; in series [2] (Water, equilibration 1 hour) it was 59.9 µg/mL; in series [2] (Water, equilibration 24 hours), 39.3 µg/mL. Also, the “Solubility compared with form I crystals (in words)” value in series [2] (shake flask method) is “higher than that of the form I crystals”. For the same compound, the “Physical stability in accelerated test (in words)” value in series [3] (6 months, 40° C. and 75% RH, sealed condition) is “hardly crystallized and physically stable”. The “Physical stability in long-term stability test (in words)” value in series [3] (12 months, 30° C. and 75% RH, sealed condition) was “hardly crystallized and physically stable”. Also, the “State of the amorphous form after storage (X-ray powder diffraction peak)” value in series [3] (25° C./93% RH, Open, 1 month) is “X”; in series [3] (25° C./93% RH, Open, 3 months), “X”; in series [3] (25° C./93% RH, Open, 6 months), “X”; in series [3] (30° C./75% RH, Sealed, 3 months) it was “◯”; in series [3] (30° C./75% RH, Sealed, 6 months), “◯”; in series [3] (30° C./75% RH, Sealed, 12 months), “◯”. Moreover, the “State of the amorphous form after storage (X-ray powder diffraction peak)” value in series [3] (40° C./75% RH, Sealed, 1 month) is recorded as “◯”; in series [3] (40° C./75% RH, Sealed, 3 months) it was “◯”; in series [3] (40° C./75% RH, Sealed, 6 months), “◯”.
On to `CCc1cc2c(cc1N1CCC(N3CCOCC3)CC1)C(C)(C)c1[nH]c3cc(C#N)ccc3c1C2=O` [Example 8, 9-ethyl-6,6-dimethyl-8-(4-morpholin-4-yl-piperidin-1-yl)-11-oxo-6,11-dihydro-5H-benzo[b]carbazole-3-carbonitrile], for which the “Retention rate after 3 months at 40° C. in 75 % RH” value in series [4] (40° C. and 75% RH, open state) is on record as 99.66. The “Retention rate after 3 months at 40° C.” value in series [4] (thermostatic bath 40° C.) is 99.60.
